Test [1] deals with T1, Human adenosine A1 receptors (Homo sapiens, UniProt P30542).
T1 sequence (P30542 1-326): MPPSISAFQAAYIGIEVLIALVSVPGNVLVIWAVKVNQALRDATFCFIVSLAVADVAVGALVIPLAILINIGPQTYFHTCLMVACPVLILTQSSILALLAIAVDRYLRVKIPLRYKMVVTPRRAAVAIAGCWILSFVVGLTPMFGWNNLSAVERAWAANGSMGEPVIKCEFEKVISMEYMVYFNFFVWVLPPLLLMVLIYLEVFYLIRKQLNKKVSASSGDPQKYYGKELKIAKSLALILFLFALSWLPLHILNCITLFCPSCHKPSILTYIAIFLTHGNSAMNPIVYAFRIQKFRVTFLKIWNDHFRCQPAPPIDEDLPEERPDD
Briefly: Adenosine A1 receptor functional assay ([35S]-GTPγS binding, assay conditions II). Format: biochemical. Details: purchased PerkinElmer (Rodgau, Germany) ES-010-M400UA; host or cells: CHO-K1 cell membranes. Conditions: 1. and 2. Measurement. How it is done: (§1) Membranes were preincubated with the respective effectors for 15 min, the incubation was initiated by the addition of 200 pM [^35S]-GTPγS (60 min incubation at 30°C in a final volume of 200 µL assay buffer). assay buffer:
(§2) From every data point the non-specific binding (binding of [^35S]-GTPγS in the presence of 10 µM GDP) was subtracted and the value-normalized to the respective control signal of the respective plate.
(§3) Namely, concentration-response curves of the test compound extracts in the agonist and antagonist mode were normalized to 0% change. In the agonist mode 0% change corresponds to the level of the basal signal; in the antagonist mode 0% change corresponds to the maximal stimulation of the receptor by the reference agonist. In the agonist mode -100% change correponds to 0% specific binding and in the antagonist mode to the basal signal (specific signal without any effector added).
In case of ill-defined curves, the IC50 was determined by graphical exploration of the algorithm-generated curve.
(Binding of GTPγS marks nucleotide exchange on a G protein.)

A further test concerns adenosine receptors. Briefly: [35S]-GTPγS binding functional assays, basal signal and overall classification (preparation not specified). In kind it is biochemical. The note with it: conclusion from agonist and antagonist mode results. How it is done:
as §2, §3
In principle, the [^35S]-GTPγS-binding assay always measures the activation state of all GPCRs present in the homogenates. Even without addition of any effector some GPCRs are activated leading to the basal signal of G protein activation. One reason for effector-independent activation is constitutive activity of receptors, another reason is the putative biological activity of membrane preparations (so could e.g. effectors/agonists be generated in situ by endogenous enzymes of the membrane preparations). A third reason might be that the membrane preparations themselves contain endogenous agonists.
This method is especially suitable to identify antagonistic actions of test compounds. A receptor is maximally pre-stimulated by a receptor-specific agonist (meaning all G proteins coupled to this receptor are maximally activated).

For test [2], the system named is human neuroblastoma cell line SHSY5Y. Briefly: Transcriptomics study (RNA sequencing, gene set enrichment analysis of DEG data). Format: cell-based. The note with it: SHSY5Y cells, 20 nM, 24 hr. How it is done:
Cells from human neuroblastoma cell line SHSY5Y were treated with 20 nM of each of the compounds in cell culture media for a 24 hr incubation under normal cell culture conditions. […] DMSO was used as control treatment. Total RNA was isolated using the Qiagen RNAeasy kit according to the manufacturer's protocols and sequenced using short-read Illumina sequencing. The experiment was repeated in three separate biological experiments. Libraries were prepared with the NEBNext Ultra II Directional RNA Library Prep Kit for Illumina protocol according to supplier recommendations.
Briefly, the key stages of this protocol are successively: the purification of polyA-containing mRNA molecules using poly-T oligo-attached magnetic beads from 100 ng total RNA (using the Magnetic mRNA Isolation Kit from NEB), a fragmentation using divalent cations under elevated temperature to obtain approximately 300 bp pieces, double-stranded cDNA synthesis, and finally Illumina adapter ligation and cDNA library amplification by PCR for sequencing. Sequencing was then carried out on paired-end 100 b using the NovaSeq 6000 system. (NovaSeq Control Software V1.7.5). Image analysis and base calling was performed using Illumina Real Time Analysis with default parameters.
Raw data was mapped to reference human genome using STAR pipeline (1) for alignment and quantification of transcripts. Differential gene expression analysis was carried out on read count data using Deseq2 package in R (2). Gene set enrichment analysis was carried out using R package on differentially expressed gene (DEG) data using R package clusterProfiler (3,4) to understand biological, molecular and KEGG processes affected with compound treatment. […] Gene Set Enrichment Analysis (GSEA) was used to interpret gene expression data by focussing on groups of genes that share common biological functions, chromosomal locations, or regulation (5). […] These rankings were further analysed to understand differences in biological function attributed to gene groups and subsequent effects on cell function and response by treatment with compounds according to the present disclosure.

The target in the next test is Adenosine A2A Receptor (Rattus norvegicus, UniProt P30543). Briefly: Adenosine A2A receptor functional assay ([35S]-GTPγS binding, rat striatal membranes). In kind it is biochemical. How it is done:
Male Sprague Dawley rats were sacrificed by decapitation, rat striata were dissected on ice, frozen in liquid nitrogen and stored at -80°C. The tissue was homogenized (20 strokes with a glass-teflon homogenizer, 2000 rounds per minute) at 4°C in 10 mL of 10 mM Tris-HCl pH 7.4, 1 mM EDTA, and centrifuged for 15 min at 25,000 x g. The centrifugation step was repeated twice and the pellet finally resuspended in 50 mM Tris-HCl pH 7.4, 4 mM MgCl2 and 1 mM EDTA, frozen in liquid nitrogen and stored at-80°C until usage.
as §1, §2, §3
In case of ill-defined curves, the IC50 was determined by graphical exploration of the algorithm-generated curve. […]

In test [3] the target is T2, human adenosine A2A receptors (Homo sapiens, UniProt P29274). Briefly: Human recombinant A2A assay ([35S]-GTPγS binding, HEK293 background). Format: biochemical. Further details: purchased PerkinElmer (Rodgau, Germany) RBHA2AM400UA; host or cells: HEK293 cell membranes. The text has this: Both signal transduction pathways are in principle detectable by the GTPγS technique.

Test [4] addresses T1, Human adenosine A1 receptors. Briefly: biochemical.
Description: Binding experiments were performed according to the data sheet provided by the supplier of the receptor (Perkin Elmer) with modifications:
Approximately 2.4-3 µg protein-containing membranes were incubated for 60 min in a total volume of 100 µL at 27°C: assay buffer:
Test compound data are presented as specific radioligand binding to the receptor.
(§4) In case of ill-defined curves or algorithm-generated minima below the defined non-specific binding, the IC50 value was determined by graphical extrapolation.
Test [5] concerns the target T2, human adenosine A2A receptors. Briefly: Adenosine A2A receptor radioligand binding assay ([125I]-ZM241385 competition, membranes of HEK293 cells).
Description: Approximately 0.4-0.9 µg protein-containing membranes were incubated for 60 min in a total volume of 100 µL at 37°C. assay buffer:
Test compound data are presented as specific radioligand binding to the receptor. Specific binding is defined as the difference between the total binding and the non-specific binding determined in the presence of the reference compound as detailed in the previous sections.
as §4
The next test has as its target Adenosine A1 receptor (Rattus norvegicus, UniProt P25099). The note with it: read-out: IC50 Mean (footnote: Literature value determined in rat), Ji et al., J Med. Chem. 39, 781-788 (1996); cited from earlier work.
The mark [6] stands for this setting: IC50 1.M, first measurement, [3H]-DPCPX 1 nM, 60 min, 27°C.
Where [7] appears, read: IC50 2.M, second measurement, [3H]-DPCPX 1 nM, 60 min, 27°C.
[8] abbreviates: IC50 1.M, first measurement, [125I]-ZM241385 20000 cpm, 60 min, 37°C.
Setting [9] is: IC50 2.M, second measurement, [125I]-ZM241385 20000 cpm, 60 min, 37°C.

Each structure is given as a SMILES string.

The IC50 is the point on the concentration scale where inhibition reaches its midpoint. What is called EC50 is the concentration needed to bring the measured effect to its halfway point.

T2 sequence (P29274 whole entry): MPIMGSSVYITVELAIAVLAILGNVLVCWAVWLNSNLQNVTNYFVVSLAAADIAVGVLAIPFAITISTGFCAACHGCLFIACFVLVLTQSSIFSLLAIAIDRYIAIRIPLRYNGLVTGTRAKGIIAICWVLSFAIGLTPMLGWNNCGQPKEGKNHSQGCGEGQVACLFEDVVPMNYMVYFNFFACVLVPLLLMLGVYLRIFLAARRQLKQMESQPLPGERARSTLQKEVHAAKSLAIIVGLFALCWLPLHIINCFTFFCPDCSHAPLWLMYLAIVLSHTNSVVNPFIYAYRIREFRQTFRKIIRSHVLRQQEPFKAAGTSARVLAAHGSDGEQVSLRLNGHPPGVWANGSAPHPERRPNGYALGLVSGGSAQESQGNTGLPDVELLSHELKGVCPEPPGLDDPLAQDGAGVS
Chain of Adenosine A1 receptor (P25099 whole entry): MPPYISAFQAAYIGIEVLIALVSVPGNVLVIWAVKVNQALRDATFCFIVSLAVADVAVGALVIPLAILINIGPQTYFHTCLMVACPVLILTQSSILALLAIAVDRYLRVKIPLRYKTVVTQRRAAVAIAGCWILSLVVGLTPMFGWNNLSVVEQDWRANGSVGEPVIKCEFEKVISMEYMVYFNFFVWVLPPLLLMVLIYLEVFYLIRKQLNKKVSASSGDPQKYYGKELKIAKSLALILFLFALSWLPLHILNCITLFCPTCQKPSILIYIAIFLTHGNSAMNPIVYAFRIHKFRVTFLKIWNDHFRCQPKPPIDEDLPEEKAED
Chain of Adenosine A2A Receptor (P30543 whole entry): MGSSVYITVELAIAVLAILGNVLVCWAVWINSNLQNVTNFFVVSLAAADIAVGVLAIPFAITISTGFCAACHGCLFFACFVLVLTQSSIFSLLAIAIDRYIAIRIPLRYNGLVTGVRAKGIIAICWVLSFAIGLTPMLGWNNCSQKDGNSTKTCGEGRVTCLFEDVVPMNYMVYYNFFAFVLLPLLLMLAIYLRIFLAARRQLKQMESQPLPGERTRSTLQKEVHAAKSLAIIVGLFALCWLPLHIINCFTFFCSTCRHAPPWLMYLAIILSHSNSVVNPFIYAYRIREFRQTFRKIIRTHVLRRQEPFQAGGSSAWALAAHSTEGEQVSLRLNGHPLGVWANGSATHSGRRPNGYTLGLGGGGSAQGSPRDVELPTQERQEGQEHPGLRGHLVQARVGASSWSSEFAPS

`COc1c(O)cc2oc(-c3ccc(O)cc3)cc(=O)c2c1O` [Hispidulin, 5,7-Dihydroxy-2-(4-hydroxyphenyl)-6-methoxy-4H-1-benzopyran-4-one]: the IC50 in test [1] (IC50 in µM agonist mode, agonist mode (effect on basal signal)) came to 40 µM; in test [1] (IC50 in µM antagonist mode, antagonist mode (CCPA-stimulated signal)), 20 µM; in test [4] (setting [6]), 34 µM; in test [4] (setting [7]), 36 µM; in test [4] (IC50 Mean, mean of 1.M and 2.M), 35 µM; in test [5] (setting [8]), 1.8 µM. For the same compound, the IC50 in test [5] (setting [9]) is 3.2 µM; in test [5] (IC50 Mean, mean of 1.M and 2.M), 2.5 µM. The classification entry with adenosine receptors is “antagonist to the adensosine A1 receptor”. The “Effect (common themes from gene set enrichment analysis of DEG data)” value in test [2] (comparison Caffeine vs Treatment) is reported as “Suppression of adrenergic signaling in cardiomocytes”; in test [2] (comparison Caffeine vs Treatment, listed as Hispdulin) it was “Suppression of blood circulation, muscle contraction. Activation of negative regulation of muscle cell apoptosis”; in test [2] (comparison DMSO vs Treatment) it was “Suppression of renin-angiotensis sytem, renin secretion”. The “difference between the agonist and antagonist mode in the rat adenosine assay” value on Adenosine A2A Receptor was “at least 500 fold”. In addition, the EC50 in test [3] was about 400 µM.

`COc1cc2oc(-c3ccc(O)cc3)cc(=O)c2c(O)c1OC` [Cirsimaritin]: the IC50 was 1.2 µM at Adenosine A1 receptor; 617 µM in test [4] (setting [6]); 122 µM in test [4] (setting [7]); 1.3 µM in test [5] (setting [8]); 2.1 µM in test [5] (setting [9]); 1.7 µM in test [5] (IC50 Mean, mean of 1.M and 2.M).

The values are drawn from EP4631502A1 (Nicoventures Trading Limited, priority 2024, dated 2025).
